“And” between values parts separate entries of the source, which are not always exact repeats. Equal values may be shown once. Marks after values point to notes of the source that are not given here.
What was measured:
soya bean 5-LOX = biological target: T1, soya bean 5-LOX (Glycine max, UniProt P08170); assay: 5-LOX enzyme assay (EIA kit, Cayman 760700); format: biochemical
T1 construct: purchased Cayman Chemical, Ann Arbor, Michigan, USA 760700
T1 sequence (P08170 1-839): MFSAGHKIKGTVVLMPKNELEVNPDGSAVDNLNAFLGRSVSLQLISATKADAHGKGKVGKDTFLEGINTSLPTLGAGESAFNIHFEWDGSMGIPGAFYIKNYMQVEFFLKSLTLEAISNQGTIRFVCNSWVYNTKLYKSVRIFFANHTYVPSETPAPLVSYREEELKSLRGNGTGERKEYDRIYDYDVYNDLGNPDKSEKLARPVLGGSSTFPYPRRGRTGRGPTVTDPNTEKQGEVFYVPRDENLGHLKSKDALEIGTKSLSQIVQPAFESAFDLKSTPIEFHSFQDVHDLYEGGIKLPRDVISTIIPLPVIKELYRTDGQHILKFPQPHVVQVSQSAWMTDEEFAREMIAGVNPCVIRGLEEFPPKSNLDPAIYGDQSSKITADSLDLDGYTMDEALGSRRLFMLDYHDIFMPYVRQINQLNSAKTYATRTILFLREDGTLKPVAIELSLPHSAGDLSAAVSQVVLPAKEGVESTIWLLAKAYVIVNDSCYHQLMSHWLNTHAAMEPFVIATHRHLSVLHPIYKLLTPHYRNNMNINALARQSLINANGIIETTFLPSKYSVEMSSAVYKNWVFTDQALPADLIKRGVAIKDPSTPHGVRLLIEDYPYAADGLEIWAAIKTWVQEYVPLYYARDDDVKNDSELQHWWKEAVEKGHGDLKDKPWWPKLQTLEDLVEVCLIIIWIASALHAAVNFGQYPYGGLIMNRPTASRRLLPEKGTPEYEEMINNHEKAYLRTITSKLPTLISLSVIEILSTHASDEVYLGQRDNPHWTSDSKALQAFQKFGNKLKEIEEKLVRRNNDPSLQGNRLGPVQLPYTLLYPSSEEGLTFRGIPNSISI
Source text: The capacity of compounds 3a–j to inhibit the enzyme 5-lipoxygenase (5-LOX) has been investigated ([Youssif et al., 2019]).
The study used an enzyme immune assay (EIA) kit (catalogue no. 760700, Cayman Chemical, Ann Arbor, Michigan, USA) to evaluate the inhibitory activity of target analogues against soya bean 5-LOX, ensuring compliance with manufacturer’s instructions and protocols, and calculating IC50 values ([Roschek et al., 2009]).

mPGES-1 = biological target: T2, mPGES-1 (Homo sapiens, UniProt O14684); assay: Cell-free mPGES-1 enzyme assay (microsomal fractions from IL-1β-stimulated A549 cells); format: biochemical; details: for remaining activity at 10 µM: 10 µM compound, read-out: mPGES-1 RA (%) 10 µM (residual activity percentage); for remaining activity at 10 µM / IC50: cell-free, A549 microsomes
T2 construct: microsomal fractions from IL-1β-stimulated A549 cells served as the enzyme source; endogenous in cells; host or cells: A549 cells (IL-1β-stimulated), microsomal fraction
T2 sequence (O14684 1-152): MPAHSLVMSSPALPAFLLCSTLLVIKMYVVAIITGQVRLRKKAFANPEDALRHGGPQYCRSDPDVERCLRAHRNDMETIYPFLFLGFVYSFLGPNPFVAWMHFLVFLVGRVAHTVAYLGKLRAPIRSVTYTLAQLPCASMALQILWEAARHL
Method: A cell-free assay was conducted to evaluate the capacity of compounds […] to act as inhibitors of mPGES-1. In this assay, microsomal fractions from IL-1β-stimulated A549 cells served as the enzyme source ([Gürses et al., 2021]). During the initial screening phase, compounds 3a–j were examined for their effects on mPGES-1 at a concentration of 10 µM.
Microsomal measures of A549 cells expressing mPGES-1 were made in accordance with prior research findings ([Koeberle et al., 2008]). These cells were cultivated in Dulbecco’s Modified Eagle Medium and resuspended in a homogenization buffer. Subsequently, the microsomes were subjected to pre-incubation with either assessed compounds or a carrier solution containing 0.1 percent DMSO. The enzymatic process was halted by introducing FeCl3, citric acid, and 11-PGE2 as an internal standard. The quantities of Prostaglandin E2 (PGE2) were measured via RP-HPLC methodologies.

[1] = system: carrageen-induced paw edema; assay: Carrageenan-induced paw edema bioassay; format: in vivo, rat; parameters: concentration or dose not given beside the values; details: for % Of edema inhibition 1 h: 1 h after carrageenan injection; for % Of edema inhibition 3 h: 3 h after carrageenan injection; for % Of edema inhibition 5 h: 5 h after carrageenan injection
Method: The compounds’ efficacy was measured as edema inhibition percentage (EI %) after 1, 3, and 5 h of carrageenan injection vs. the conventional medicine Celecoxib.
Compounds 3c, 3e, 3h, and 3j were chosen for in vivo anti-inflammatory testing using the carrageen-induced paw edema bioassay method described by [Winter et al, (1962)]. The compounds’ efficacy was measured as edema inhibition percentage (EI%) after 1, 3, and 5 h of carrageenan injection vs. the conventional medicine Celecoxib.

rat intestinal mucosa = assay: Gastric ulcerogenic activity (macroscopic inspection); format: in vivo; parameters: Score: Severity lesions: scale not given here; details: oral 10 mg/kg
Method: The two most common side effects of long-term NSAID use are gastrointestinal erosion and ulcers ([Hendawy et al., 2021]). As a result, we were curious about the ulcerogenic potential of the most efficacious drugs, 3e and 3j, when given orally. The ulcerogenic effects of 3e and 3j were assessed by macroscopic inspection of rat intestinal mucosa after oral administration of 10 mg/kg of 3e, 3j, indomethacin, and celecoxib ([Manivannan and Chaturvedi, 2011]).
The ulcerogenic effects of compounds 3e and 3j were evaluated by macroscopic examination of rat intestinal mucosa after oral administration of 10 mg/kg of these compounds and indomethacin and celecoxib ([Manivannan and Chaturvedi, 2011]). See Appendix A for details.

PGE2 = assay: Rat serum PGE2 after carrageenan (ELISA); format: in vivo; details: 4 hours after subcutaneous carrageenan; for PGE2 serum concentration: mean ± SE
Source text: Inhibiting PGE2 is a crucial strategy in anti-inflammatory therapy, playing a pivotal role in managing inflammation and its associated conditions.
(§1) In this study, specializing ELISA kits were used to determine the concentration of inflammatory cytokines PGE2, IL-6, and TNF-α. The study’s findings were examined in accordance with the instructions provided by the manufacturer, and measurements were taken based on the optical density at 450 nm.

IL-6 = assay: Rat serum IL-6 after carrageenan (ELISA); format: in vivo; details: for IL-6 serum concentration: mean ± SE
Source text: as §1

TNF-α = assay: Rat serum TNF-α after carrageenan (ELISA); format: in vivo; details: for TNFα serum concentration: mean ± SE
Source text: as §1

SMILES | melting point | IC50 (soya bean 5-LOX) | remaining activity at 10 µM (mPGES-1) | IC50 (mPGES-1) | % Of edema inhibition 1 h [1] | % Of edema inhibition 3 h [1] | % Of edema inhibition 5 h [1] | other results
CC1=C(C(=O)Nc2ccc(S(N)(=O)=O)cc2)C(c2ccccc2)NC(=S)N1 (stereo not shown) [Compound 3a, 6-methyl-4-phenyl-N-[4-sulfamoylphenyl]-2-thioxo-1,2,3,4-tetrahydropyrimidine-5-carboxamide] | 266 to 269 °C | 5.85 µM | 89.2% | 4.28 µM |  |  |  | 
CC1=C(C(=O)Nc2ccc(S(N)(=O)=O)cc2)C(c2ccccc2)NC(=O)N1 (stereo not shown) [Compound 3f, 6-methyl-2-oxo-4-phenyl-N-[4-sulfamoylphenyl]-1,2,3,4-tetrahydropyrimidine-5-carboxamide] | 258 to 260 °C | 5.34 µM | 91.4% | 4.78 µM |  |  |  | 
CC1=C(C(=O)Nc2ccc(S(N)(=O)=O)cc2)C(c2cccc(O)c2)NC(=S)N1 (stereo not shown) [Compound 3b, 4-[3-hydroxyphenyl]-6-methyl-N-[4-sulfamoylphenyl]-2-thioxo-1,2,3,4-tetrahydropyrimidine-5-carboxamide] | 288 to 291 °C | 4.82 µM | 69.2% | 3.89 µM |  |  |  | 
COc1ccc(C2NC(=S)NC(C)=C2C(=O)Nc2ccc(S(N)(=O)=O)cc2)cc1O (stereo not shown) [Compound 3c, 4-[3-hydroxy-4-methoxyphenyl]-6-methyl-N-[4-sulfamoylphenyl]-2-thioxo-1,2,3,4-tetrahydropyrimidine-5-carboxamide] | 296 °C | 2.87 µM | 33.6% | 1.53 µM | 29% | 46% | 55% | fold less potent than 3j (mPGES-1) (mPGES-1; from IC50 values): 1.5 fold
COc1ccc2c(c1)c(CC(=O)O)c(C)n2C(=O)c1ccc(Cl)cc1 [Indomethacin, reference compound] |  |  |  |  |  |  |  | Score: No. of gastric ulcers (rat intestinal mucosa): 8.5 ± 0.40; Score: Severity lesions (rat intestinal mucosa): 12.50 ± 0.70
COc1ccc(C2NC(=O)NC(C)=C2C(=O)Nc2ccc(S(N)(=O)=O)cc2)cc1OC (stereo not shown) [Compound 3j, 4-[3,4-dimethoxyphenyl]-6-methyl-2-oxo-N-[4-sulfamoylphenyl]-1,2,3,4-tetrahydropyrimidine-5-carboxamide] | 266 to 267 °C | 1.98 µM and 1.89 µM | 24.7% | 0.92 µM | 38% | 60% | 71% | PGE2 %inhibition (PGE2): 79.20% and 79%; PGE2 serum concentration (PGE2): 62.60 ± 2.75 ^b pg/mL; Score: No. of gastric ulcers (rat intestinal mucosa): 0; Score: Severity lesions (rat intestinal mucosa): 0; Ulceration in the isolated rat stomach (in words) (rat intestinal mucosa): did not generate ulceration; IL-6 %inhibition (IL-6): 77%; IL-6 serum concentration (IL-6): 85.50 ± 2.35^bc pg/mL; TNFα %inhibition (TNF-α): 71%; TNFα serum concentration (TNF-α): 68.50 ± 2.00^bc pg/mL; fold more potent than the reference MK886 (mPGES-1) (mPGES-1; from IC50 values): 2.4 fold
CC1=C(C(=O)Nc2ccc(S(N)(=O)=O)cc2)C(c2cccc(O)c2)NC(=O)N1 (stereo not shown) [Compound 3g, 4-[3-hydroxyphenyl]-6-methyl-2-oxo-N-[4-sulfamoylphenyl]-1,2,3,4-tetrahydropyrimidine-5-carboxamide] | 270 to 272 °C | 4.45 µM | 64.7% | 3.45 µM |  |  |  | 
COc1cc(C2NC(=O)NC(C)=C2C(=O)Nc2ccc(S(N)(=O)=O)cc2)cc(OC)c1OC (stereo not shown) [Compound 3i, 6-methyl-2-oxo-N-[4-sulfamoylphenyl]-4-[3,4,5-trimethoxyphenyl]-1,2,3,4-tetrahydropyrimidine-5-carboxamide] | 260 to 263 °C | 3.97 µM | 53.6% | 2.89 µM |  |  |  | 
COc1cc(C2NC(=S)NC(C)=C2C(=O)Nc2ccc(S(N)(=O)=O)cc2)cc(OC)c1OC (stereo not shown) [Compound 3d, 6-Methyl-N-[4-sulfamoylphenyl]-2-thioxo-4-[3,4,5-trimethoxyphenyl]-1,2,3,4-tetrahydropyrimidine-5-carboxamide] | 270 to 272 °C | 3.65 µM | 46.8% | 2.7 µM |  |  |  | 
COc1ccc(C2NC(=O)NC(C)=C2C(=O)Nc2ccc(S(N)(=O)=O)cc2)cc1O (stereo not shown) [Compound 3h, 4-[3-hydroxy-4-methoxyphenyl]-6-methyl-2-oxo-N-[4-sulfamoylphenyl]-1,2,3,4-tetrahydropyrimidine-5-carboxamide] | 275 to 279 °C | 2.64 µM | 31.2% | 1.32 µM | 30% | 49% | 58% | PGE2 %inhibition (PGE2): 69%; PGE2 serum concentration (PGE2): 95.00 ± 2.50^abc pg/mL; IL-6 %inhibition (IL-6): 63%; IL-6 serum concentration (IL-6): 140.70 ± 4.20^ab pg/mL; TNFα %inhibition (TNF-α): 56%; TNFα serum concentration (TNF-α): 102.70 ± 2.90^ab pg/mL; fold less potent than 3j (mPGES-1) (mPGES-1; from IC50 values): 1.5 fold
Cc1ccc(-c2cc(C(F)(F)F)nn2-c2ccc(S(N)(=O)=O)cc2)cc1 [Celecoxib, reference compound] |  |  |  |  | 40% | 54% | 22% | Score: No. of gastric ulcers (rat intestinal mucosa): 2.5 ± 0.10; Score: Severity lesions (rat intestinal mucosa): 5.80 ± 0.20
Cc1cnc(NC(=O)C2=C(O)c3ccccc3S(=O)(=O)N2C)s1 [Meloxicam, reference compound] |  |  |  |  |  |  |  | PGE2 %inhibition (PGE2): 73%; PGE2 %inhibition (PGE2; listed as meloxicam): 72.60%; PGE2 serum concentration (PGE2): 82.50 ± 2.58 ^b pg/mL; IL-6 %inhibition (IL-6): 70%; TNFα %inhibition (TNF-α): 62%; TNFα serum concentration (TNF-α): 88.50 ± 2.40^ab pg/mL

Source: paper PMC11117333, “Design and synthesis of new dihydropyrimidine/sulphonamide hybrids as promising anti-inflammatory agents via dual mPGES-1/5-LOX inhibition” (Frontiers in Chemistry, 2024)
